Reference: US7989464B2, “mGluR1 antagonists as therapeutic agents” (Schering Corporation, priority 2004, dated 2011)
Read-outs that look alike come from different tables or passages of the source.

Molecular target: T1, hmGluR1 receptor (Homo sapiens, UniProt Q13255)
T1 construct: expressed in transfected cells
Assay: IC50 determination: intracellular calcium mobilization (FLIPR) upon Quisqualate stimulation in CHO cells stably expressing hmGluR1
Type: cell-based
Conditions: against Quisqualate 1 μM (EC80)
Procedure: A CHO cell line stably expressing hmGluR1 receptor was established. One day prior to assay, cells were split in growth media at concentration of 50,000 cells/well in a volume of 100 μl and seeded into black clear-bottom 96-well plates. After two to six hours, when cells were well attached to the plate, growth medium was replaced with assay medium (100 μL) consisting of DMEM high glucose, supplemented with GPT (1 U/mL) and Sodium pyruvate, 1 mM. Following overnight incubation, medium was discarded and cells were loaded for 2 h with dye from the Calcium 3 Assay Reagent Kit (Molecular Devices, # R8033), prepared according to manufacturers' instructions. […] Test compounds were added 10 minutes before Quisqualate.

[1] = FLIPR calcium mobilization, read-out: IC50 Class
[2] = class symbols, read-out: mGIuR 1 IC50
[3] = FLIPR calcium mobilization, read-out: mGluR1 IC50

T1 sequence (Q13255 19-1194): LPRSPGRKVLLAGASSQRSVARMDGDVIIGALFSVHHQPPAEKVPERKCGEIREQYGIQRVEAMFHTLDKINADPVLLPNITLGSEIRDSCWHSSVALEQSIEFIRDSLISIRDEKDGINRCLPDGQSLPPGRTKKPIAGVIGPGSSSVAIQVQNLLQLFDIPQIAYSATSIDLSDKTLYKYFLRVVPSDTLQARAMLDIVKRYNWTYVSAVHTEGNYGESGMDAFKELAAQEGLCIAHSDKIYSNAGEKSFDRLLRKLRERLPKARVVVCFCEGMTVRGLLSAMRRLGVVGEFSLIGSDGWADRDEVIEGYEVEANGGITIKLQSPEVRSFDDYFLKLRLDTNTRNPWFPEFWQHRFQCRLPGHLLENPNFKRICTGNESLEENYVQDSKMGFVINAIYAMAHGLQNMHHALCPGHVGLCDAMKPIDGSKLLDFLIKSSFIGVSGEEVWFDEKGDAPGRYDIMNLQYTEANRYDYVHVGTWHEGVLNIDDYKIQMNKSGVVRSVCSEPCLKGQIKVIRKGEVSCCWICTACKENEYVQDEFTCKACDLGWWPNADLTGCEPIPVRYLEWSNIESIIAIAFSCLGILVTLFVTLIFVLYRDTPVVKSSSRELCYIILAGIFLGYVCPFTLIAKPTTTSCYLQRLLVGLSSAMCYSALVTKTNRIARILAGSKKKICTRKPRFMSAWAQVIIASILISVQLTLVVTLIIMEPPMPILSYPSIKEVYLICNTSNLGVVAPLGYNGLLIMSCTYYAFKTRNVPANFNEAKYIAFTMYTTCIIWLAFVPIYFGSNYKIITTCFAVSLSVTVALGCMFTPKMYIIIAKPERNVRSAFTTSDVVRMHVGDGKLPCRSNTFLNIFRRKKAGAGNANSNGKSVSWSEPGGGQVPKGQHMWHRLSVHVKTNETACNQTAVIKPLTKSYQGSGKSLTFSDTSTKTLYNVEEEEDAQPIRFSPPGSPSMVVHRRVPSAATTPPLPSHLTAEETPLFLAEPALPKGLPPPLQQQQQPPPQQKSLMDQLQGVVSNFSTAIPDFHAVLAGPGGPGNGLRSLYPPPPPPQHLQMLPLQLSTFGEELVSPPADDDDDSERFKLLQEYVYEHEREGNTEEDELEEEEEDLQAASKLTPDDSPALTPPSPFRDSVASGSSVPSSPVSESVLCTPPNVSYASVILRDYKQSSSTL

| Structure (SMILES) | IC50 [1] [nM] | IC50 [2] [nM] | other results |
| --- | --- | --- | --- |
| CC(=O)Nc1cccc(-n2cnc3c(sc4nccc(N(C)C)c43)c2=O)c1 [7CI] |  | 150 to 1000 |  |
| CN(C)c1ccnc2sc3c(=O)n(-c4ccc5nsnc5c4)cnc3c12 [7BN] |  | < 50 |  |
| COc1ccc2nc(-n3cnc4c(sc5nccc(N(C)C)c54)c3=O)sc2c1 [7BP] |  | > 1000 |  |
| CSc1ccc(-n2cnc3c(sc4nccc(N(C)C)c43)c2=O)cc1 [7CQ] |  | < 50 |  |
| Cc1ccc(-n2cnc3c(sc4nccc(NCC5CCCO5)c43)c2=O)cc1 (stereo not drawn) [28ET] | 50 to 150 |  |  |
| Cc1noc(-n2cnc3c(sc4nccc(N(C)C)c43)c2=O)c1C [15AD] |  | 50 to 150 |  |
| O=c1c2sc3nccc(NCCO)c3c2ncn1-c1ccc2occc2c1 [28BD] | < 50 |  |  |
| CN(C)c1ccnc2sc3c(=O)n(-c4cccc(Br)c4)cnc3c12 [7DL] |  | < 50 |  |
| CNc1ccnc2sc3c(=O)n(-c4cccc(F)c4)cnc3c12 [28CO] | < 50 |  |  |
| COc1ccc(-n2cnc3c(sc4nccc(Nc5ccccn5)c43)c2=O)cc1 [28FO] | 150 to 1000 |  |  |
| COc1cc(OC)cc(-n2cnc3c(sc4nccc(N(C)C)c43)c2=O)c1 [7AX] |  | < 50 |  |
| Cc1ccc(-n2cnc3c(sc4nccc(NC5CCC(O)CC5)c43)c2=O)cc1 (stereo not drawn) [28DE] | 150 to 1000 |  |  |
| O=c1c2sc3nccc(N4CCCC4)c3c2ncn1C1CCCCC1 [28A] |  | > 1000 |  |
| COc1ccc(-n2cnc3c(sc4nccc(NC5CCCCC5)c43)c2=O)cc1 [28E] |  | > 1000 |  |
| CN(C)c1ccnc2sc3c(=O)n(-c4nc5ccccc5s4)cnc3c12 [7BQ] |  | 150 to 1000 |  |
| COc1cc(Br)c(-n2cnc3c(sc4nccc(N(C)C)c43)c2=O)c(Br)c1 [7BX] |  | > 1000 |  |
| Cc1ccc(-n2cnc3c(sc4nccc(NCCCCO)c43)c2=O)cc1 [28CT] | < 50 |  |  |
| CN(C)c1ccnc2sc3c(=O)n(CCc4c(Cl)cccc4Cl)cnc3c12 [28EN] | 150 to 1000 |  |  |
| Cc1cc(N(C)C)c2c(n1)sc1c(=O)n(-c3cccc(Br)c3)cnc12 [7DN] |  | 50 to 150 |  |
| O=c1c2sc3nccc(N4CC(O)C4)c3c2ncn1-c1ccc(Cl)cc1 [28DI] | 150 to 1000 |  |  |

| Structure (SMILES) | IC50 [1] [nM] | IC50 [2] [nM] | other results |
| --- | --- | --- | --- |
| Cc1ccc(-n2cnc3c(sc4ncc(Br)c(NCCO)c43)c2=O)cc1 [28FN] | < 50 |  |  |
| Cc1cccc(-n2cnc3c(sc4nccc(N(C)C)c43)c2=O)c1 [7CU] |  | < 50 |  |
| CN(CCO)c1ccnc2sc3c(=O)n(-c4ccc5c(c4)CCO5)cnc3c12 [28CL] | < 50 |  |  |
| CCNc1ccnc2sc3c(=O)n(-c4cccc(Cl)c4)cnc3c12 [28CD] | < 50 |  |  |
| CN(C)c1ccnc2sc3c(=O)n(-c4cccnc4)cnc3c12 [7O] |  | 50 to 150 |  |
| Cc1ccc(-n2cnc3c(sc4nccc(N(C)C)c43)c2=O)cc1Br [7DQ] |  | < 50 |  |
| CN(C)c1ccnc2sc3c(=O)n(-c4ccc5c(c4)CCO5)cnc3c12 [7CG] |  | < 50 |  |
| CCc1ccc(-n2cnc3c(sc4nccc(N(C)C)c43)c2=O)cc1 [7BJ] |  | < 50 |  |
| CN(C)c1ccnc2sc3c(=O)n(Cc4ccc(Cl)c(Cl)c4)cnc3c12 [7S] |  | > 1000 |  |
| COCCCNc1ccnc2sc3c(=O)n(-c4ccc(C)cc4)cnc3c12 [28CZ] | < 50 |  |  |
| C#CCN(C)c1ccnc2sc3c(=O)n(-c4ccc(Br)cc4)cnc3c12 [28DV] | < 50 |  | IC50 [3]: 1.87 nM |
| COc1ccc(-n2cnc3c(sc4nccc(N(C)C)c43)c2=O)cc1OC [7AD] |  | > 1000 |  |
| Cc1ccc(-n2cnc3c(sc4nccc(N(C)C)c43)c2=O)cc1C [7CV] |  | < 50 |  |
| Cc1ccc(-n2cnc3c(sc4nccc(NCC(F)(F)F)c43)c2=O)cc1 [28AU] |  | < 50 |  |
| C#CCNc1ccnc2sc3c(=O)n(-c4ccc(Br)cc4)cnc3c12 [28DP] | < 50 |  | IC50 [3]: 1.75 nM |
| Cc1cc(-n2cnc3c(sc4nccc(N(C)C)c43)c2=O)ccc1I [7EA] |  | < 50 |  |
| CCCN(C)c1ccnc2sc3c(=O)n(C4CCCCC4)cnc3c12 [28AN] |  | < 50 |  |
| Cc1cc(F)cc(-n2cnc3c(sc4nccc(N(C)C)c43)c2=O)c1 [7DX] |  | < 50 |  |
| Cc1ccc(-n2cnc3c(sc4nccc(N(C)C)c43)c2=O)c(F)c1 [7DW] |  | < 50 |  |
| COc1cc(-n2cnc3c(sc4nccc(N(C)C)c43)c2=O)c(OC)cc1Cl [7V] |  | > 1000 |  |

The next lines start with results.

| IC50 [1] [nM] | IC50 [2] [nM] | Structure (SMILES) | other results |
| --- | --- | --- | --- |
| < 50 |  | CNc1ncnc2sc3c(=O)n(-c4ccc(OC)cc4C)cnc3c12 [95BH] |  |
| < 50 |  | COc1ccc(-n2cnc3c(sc4ncc(Br)c(N)c43)c2=O)cc1 [173B] |  |
| 150 to 1000 |  | Nc1c([N+](=O)[O-])cnc2sc3c(=O)n(C4CCCCC4)cnc3c12 [compound 174] |  |
|  | > 1000 | CC(=O)Nn1c(C)nc2c(sc3nccc(N(C)C)c32)c1=O [65A] |  |
| > 1000 |  | O=c1c2sc3nccc(Oc4ccccc4)c3c2ncn1-c1ccc(Cl)cc1 [compound 176] |  |
|  | < 50 | C=CCOc1ccnc2sc3c(=O)n(-c4ccc(C)cc4)cnc3c12 [66D] |  |
| < 50 |  | C#CCNc1ncnc2sc3c(=O)n(-c4ccc(Cl)cc4)cnc3c12 [95EG] |  |
|  | 150 to 1000 | Cc1ccc(-n2c(C)nc3c(sc4nccc(NC5CC5)c43)c2=O)cc1 [113J] |  |
| < 50 |  | O=c1c2sc3nccc(NCCO)c3c2ncn1-c1ccc(Br)cc1 [28GA] |  |
|  | > 1000 | O=c1c2sc3nccc(N4CCOCC4)c3c2ncn1C1CCCCC1 [28O] |  |
| > 1000 |  | COc1ccc(-n2cnc3c(sc4ncnc(OC)c43)c2=O)cc1 [95GO] |  |
| > 1000 |  | Cc1ccc(-n2cnc3c(sc4nccc(CN(CC5CC5)CC5CC5)c43)c2=O)cc1 [169B] |  |
| < 50 |  | C#CCNc1ncnc2sc3c(=O)n(-c4ccc(Br)cc4)cnc3c12 [95EQ] |  |
| < 50 |  | O=c1c2sc3nccc(NC4CC4)c3c2ncn1-c1ccc(O)cc1 [28HS] |  |
|  | > 1000 | CNc1ccnc2c1c1ncn(-c3ccc(C)cc3)c(=O)c1n2Cc1ccc(OC)cc1 [134I] |  |
| 50 to 150 |  | C#CCNc1nncc2sc3c(=O)n(-c4ccc(C)cc4)cnc3c12 [167J] |  |
| < 50 |  | C=C(C)CNc1ncnc2sc3c(=O)n(-c4ccc(C)cc4)cnc3c12 [95EY] |  |
| < 50 |  | COCCCNc1ccnc2sc3c(=O)n(-c4ccc(Cl)cc4)cnc3c12 [28GN] |  |
|  | < 50 | CNc1ccnc2sc3c(=O)n(-c4ccccc4)c(C)nc3c12 [113E] |  |
| 50 to 150 |  | CNc1c(C#N)cnc2sc3c(=O)n(-c4ccc(OC)cc4)cnc3c12 [28FQ] |  |
|  | < 50 | CCNc1ccnc2sc3c(=O)n(-c4ccc(S)c(NC=O)c4)cnc3c12 [131G] |  |
| 50 to 150 |  | CN(C)c1ccnc2sc3c(=O)n(-c4ccc(OS(C)(=O)=O)cc4)cnc3c12 [compound 204] |  |
| < 50 |  | CC(O)CCNc1ccnc2sc3c(=O)n(-c4ccc(Cl)cc4)cnc3c12 (stereo not drawn) [28HM] |  |
| > 1000 |  | O=c1c2sc3nccc(NC4CC4)c3c2ncn1-c1ccc(OS(=O)(=O)C(F)(F)F)cc1 [28HT] |  |
|  | < 50 | CCN(C)c1ncnc2sc3c(=O)n(-c4ccc5ncsc5c4)cnc3c12 [95I] |  |
|  | > 1000 | Cc1ccc(-n2cnc3c(sc4nccc(OC5CCCC5)c43)c2=O)cc1 [66C] |  |
|  | < 50 | CCNc1ccnc2sc3c(=O)n(-c4ccc(OC)cc4)cnc3c12 [131A] |  |

| IC50 [1] [nM] | IC50 [2] [nM] | Structure (SMILES) | other results |
| --- | --- | --- | --- |
| < 50 |  | COc1ccc(-n2cnc3c(sc4nccc(NCCC(C)O)c43)c2=O)cc1 (stereo not drawn) [28HP] |  |
| 150 to 1000 |  | O=c1c2sc3nccc(NC4CC4)c3c2ncn1-c1ccc(C2CC2)cc1 [137I] |  |
|  | > 1000 | O=c1c2sc3nccc(-n4cccn4)c3c2ncn1C1CCCCC1 [30B] |  |
|  | < 50 | CCN(C)c1ccnc2sc3c(=O)n(-c4ccccc4)c(C)nc3c12 [113D] |  |
|  | < 50 | CN(C)c1ccnc2sc3c(=O)n(-c4cccc(C5CC5)c4)cnc3c12 [137B] |  |
|  | > 1000 | O=c1c2sc3nccc(C4CCCC4)c3c2ncn1C1CCCCC1 [29B] |  |
| 50 to 150 |  | C=CCNc1ncnc2sc3c(=O)n(-c4ccc(OC)c(F)c4)cnc3c12 [95BN] |  |
|  | < 50 | COc1ccc(-n2cnc3c(sc4ncc(Br)c(N(C)C)c43)c2=O)cc1 [compound 151] |  |
|  | < 50 | CNc1c(Br)cnc2sc3c(=O)n(-c4ccc(OC)cc4)cnc3c12 [compound 152] |  |
| > 1000 |  | COCCn1cnc2c(sc3ncnc(NC4CCC4)c32)c1=O [95DW] |  |
| 150 to 1000 |  | O=c1c2sc3nccc(OCC4CC4)c3c2ncn1-c1ccc(Br)cc1 [66L] |  |
| < 50 |  | CC(O)CCNc1ccnc2sc3c(=O)n(-c4ccc(Br)cc4)cnc3c12 (stereo not drawn) [28HO] |  |
| > 1000 |  | O=c1c2sc3ncnc(Nc4ccccc4)c3c2ncn1-c1ccccc1 [95GC] |  |
| 150 to 1000 |  | C=CCCOc1ccnc2sc3c(=O)n(-c4ccc(Br)cc4)cnc3c12 [66K] |  |
|  | < 50 | CCN(C)c1ccnc2sc3c(=O)n(C4CCCCC4)cnc3c12 [28Y] |  |
| > 1000 |  | COCCn1cnc2c(sc3ncnc(N(C)C)c32)c1=O [95EA] |  |
| > 1000 |  | Cc1ccc(-n2cnc3c(sc4ncc(C(=O)N(C)C)cc43)c2=O)cc1 [205A] |  |
| > 1000 |  | CCOC(=O)c1cnc2sc3c(=O)n(-c4ccc(OC)cc4)cnc3c2c1 [144B] |  |
| < 50 |  | COCCNc1ccnc2sc3c(=O)n(-c4ccc(F)cc4)cnc3c12 [28GL] |  |
|  | 150 to 1000 | COc1ccc(-n2c(C(F)(F)F)nc3c(sc4nccc(N(C)C)c43)c2=O)cc1 [117B] |  |
| < 50 |  | CCCNc1ncnc2sc3c(=O)n(-c4ccc(C)cc4)cnc3c12 [95FG] |  |
| < 50 |  | CC(C)c1ccnc2sc3c(=O)n(-c4ccc(Cl)cc4)cnc3c12 [29J] |  |
| < 50 |  | CCN(C)c1ccnc2sc3c(=O)n(-c4ccc5c(c4)OCO5)cnc3c12 [28IE] |  |
|  | < 50 | CNc1c(Br)cnc2sc3c(=O)n(C4CCCCC4)cnc3c12 [compound 44] |  |
|  | > 1000 | O=C1CCCN1c1ccnc2sc3c(=O)n(C4CCCCC4)cnc3c12 [30C] |  |
|  | 150 to 1000 | CC(=O)c1c(C)nc2sc3c(=O)n(-c4ccc(C)cc4)cnc3c2c1-c1ccc(Cl)cc1 [P-8] |  |
|  | 50 to 150 | COc1ccc(-n2cnc3c(sc4cncc(N(C)C)c43)c2=O)cc1 [37F] |  |
